{"source": "patent US8106056B2", "about": "“Combination preparations comprising bifeprunox and a dopamine agonist” (Solvay Pharmaceuticals B.V., priority 2006, dated 2012)", "key": {"[1]": {"system": "MPTP-treated common marmosets", "test": "Locomotor activity in MPTP-treated common marmosets (automated activity cages)", "type": "in vivo, common marmosets (Callithrix jacchus)", "method": "(§1) These animals were L-DOPA responsive and not test drug naive. They had not been experimentally primed for dyskinesia although some dyskinesia was present.\n(§2) Drug treatment: Bifeprunox mesylate was suspended in 10% sucrose solution and administered orally by gavage in a volume of 2.0 ml/kg. L-DOPA: L-3,4-Dihydroxyphenylalanine (L-dopa) methylester (Sigma Chemical Co, UK) was dissolved in 10% sucrose solution and administered orally by gavage in a volume of 2.0 ml/kg. Carbidopa: (Merck, Sharp and Dohme, UK) was administered orally as a suspension in 10% sucrose solution in a volume of 2.0 ml/kg. Domperidone: (2.0 mg/kg po, Sigma UK) was dissolved in 10% sucrose and administered 60 min prior to bifeprunox in a volume of 2.0 ml/kg, Bifeprunox (4 or 8 mg/kg po free base) or its vehicle (10% sucrose) was administered alone and in combination with L-DOPA (7.5 mg/kg po free base, given in combination with carbidopa, 12.5 mg/kg po) to MPTP-treated marmosets (n=6). Animals were treated with bifeprunox or its vehicle 90 min prior to administration of L-DOPA or its vehicle administration. Carbidopa was administered 30 minutes prior to administration of L-DOPA. Domperidone was administered 60 min prior to bifeprunox administration.\nBehavioral Studies: In all studies, animals were acclimatised to behavioral study cages for 1 hour prior to treatment. The animals were placed individually into activity cages (50×60×70 cm) fitted with a clear perspex door to allow clear visibility for observation. Each cage was equipped with 8 horizontally orientated infrared photocell emitters and their corresponding detectors arranged so as to permit maximum assessment of movement. Locomotor activity was assessed as the number of light beam interruptions caused by movement of the animals accumulated in 10-minute intervals for up to 7 hours. The animals were allowed a 60-minute acclimatisation period in the activity cages during which baseline activity was assessed, before drug administration. ‘On’ Threshold was defined as 3 times baseline activity in MPTP-treated marmosets. Hyperactivity was defined as 3 times normal activity in naive marmosets. ‘On’ time was the period of time in minutes that activity was above the ‘On’ Threshold. Animals were treated with bifeprunox, vehicle and/or L-DOPA. Following drug treatment, animals were assessed for locomotor activity and disability as described below for up to 6 h following drug administration. The animals used in the study were in the automated activity cages for no longer than 8 h on any study day, and were allowed at least 3 days recovery period between drug treatments to ensure appropriate animal welfare consideration. The locomotor activity, motor disability and presence of dyskinesia were assessed as follows:\nLocomotor Activity: In all studies the animals were acclimatised to behavioral study cages for 1 hour prior to bifeprunox treatment. Animals were then treated with appropriate drugs. Following treatment, animals were assessed for antiparkinsonian activity for up to 6 h using automated activity cages and by the rating of disability by an observer blinded to the treatment.\n(§3) Data and Statistical Analysis: Data are presented as median locomotor activity (counts/30 min) or disability score (score over 10 min/30 min) over the 7 hour period of the experiment, or as total locomotor activity (counts/420 min) or disability (total score over 420 min). Data were analysed by Kruskall Wallis ANOVA and post-hoc Man-Whitney test where appropriate. Analyses were corrected for multiple comparisons using the formula: Acceptable probability=α/number of comparisons where α=5% A separate group of animals from those used in the study were treated with vehicle and were used for statistical comparison."}, "[2]": {"system": "MPTP-treated common marmosets", "test": "Disability rating in MPTP-treated common marmosets", "type": "in vivo, common marmosets (Callithrix jacchus)", "method": "as §1, §2\nDisability and dyskinesia scores: Disability and dyskinesia was assessed before, and during the last 10 minutes in every 30 min period after bifeprunox administration for up to 6 hours following drug treatment. The following disability rating scales were used:\nRating of disability: The disability of animals was scored as follows; alertness (normal 0, sleepy 2); reaction (normal 0, reduced 1, slow 2, absent 3); checking movements (present 0, reduced 1, absent 2); attention and eye movements (normal 0, abnormal 1); posture (normal 0, abnormal trunk+1, abnormal limbs+1, abnormal tail+1, or grossly abnormal 4); balance/co-ordination (normal 0, impaired 1, unstable 2, spontaneous falls 3); vocalisation (normal 0, reduced 1, absent 2); motility (normal 0, bradykinesia/hyperkinesia 1, akinesia/hyperkinesia 2). Sedation was noted if present.\nas §3"}, "[3]": {"biological_target": "T1, serotonin 5-HT1A receptors (Homo sapiens, UniProt P08908)", "T1 sequence (P08908 1-422)": "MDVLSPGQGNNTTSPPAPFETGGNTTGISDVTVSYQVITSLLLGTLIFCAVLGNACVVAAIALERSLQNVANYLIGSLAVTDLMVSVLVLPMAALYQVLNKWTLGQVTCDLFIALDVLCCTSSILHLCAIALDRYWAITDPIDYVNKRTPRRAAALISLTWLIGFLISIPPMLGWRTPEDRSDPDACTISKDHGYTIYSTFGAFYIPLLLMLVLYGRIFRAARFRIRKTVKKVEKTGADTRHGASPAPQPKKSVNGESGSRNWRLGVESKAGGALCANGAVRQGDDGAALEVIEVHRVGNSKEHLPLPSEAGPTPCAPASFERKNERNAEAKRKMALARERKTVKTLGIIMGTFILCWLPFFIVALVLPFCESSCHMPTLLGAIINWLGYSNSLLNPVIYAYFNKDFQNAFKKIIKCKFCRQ", "settings": "cited from earlier work"}, "dopamine D2/3 receptors": {"system": "dopamine D2/3 receptors", "settings": "cited from earlier work"}, "[4]": {"settings": "L-DOPA 7.5 mg/kg po plus carbidopa 12.5 mg/kg po 30 min prior"}, "[5]": {"settings": "bifeprunox 4 mg/kg po 90 min prior to L-DOPA 7.5 mg/kg po plus carbidopa 12.5 mg/kg po"}, "[6]": {"settings": "bifeprunox 4 mg/kg po alone, p<0.05, Mann Whitney"}, "[7]": {"settings": "bifeprunox 8 mg/kg po 90 min prior to L-DOPA 7.5 mg/kg po plus carbidopa 12.5 mg/kg po"}, "[8]": {"settings": "bifeprunox 8 mg/kg po alone, p<0.05, Mann Whitney"}}, "note": "Entries after “also recorded” stand apart in the source; their conditions may differ."}
{"smiles": "N[C@@H](Cc1ccc(O)c(O)c1)C(=O)O", "note": "[L-DOPA, L-3,4-Dihydroxyphenylalanine, reference compound]", "values": [{"measurement": "locomotor activity compared to vehicle administration", "setting": "[1]; [4]", "result": "increased"}, {"measurement": "median duration of activity (locomotor On-Time)", "setting": "[1]; [4]", "result": 180, "unit": "min/420 min"}, {"measurement": "Total locomotor activity and locomotor 'on-time' versus vehicle", "setting": "[1]; L-DOPA 7.5 mg/kg po plus carbidopa 12.5 mg/kg po, p<0.05, Mann Whitney", "result": "greater than vehicle-treated animals"}, {"measurement": "disability 'On-Time'", "setting": "[2]; [4]", "result": 120, "unit": "min/420 min"}, {"measurement": "time at which peak disability score was reached after administration (median)", "setting": "[2]; [4]", "result": 75, "unit": "min"}, {"measurement": "disability scores compared to vehicle administration", "setting": "[2]; L-DOPA 7.5 mg/kg po plus carbidopa 12.5 mg/kg po 30 min prior, p<0.05, Mann Whitney", "result": "decreased"}]}
{"smiles": "O=c1[nH]c2cccc(N3CCN(Cc4cccc(-c5ccccc5)c4)CC3)c2o1", "note": "[bifeprunox, 7-[4-([1,1′-biphenyl]-3-ylmethyl)-1-piperazinyl]-2(3H)-benzoxazolone]", "values": [{"measurement": "functional activity at serotonin 5-HT1A receptors", "setting": "[3]", "result": "partial agonist; also recorded: full agonism"}, {"measurement": "Locomotor activity compared to L-DOPA alone and bifeprunox (4 mg/kg po) alone", "setting": "[1]; [5]", "result": "tended to increase"}, {"measurement": "locomotor On-Time compared to the single treatments", "setting": "[1]; [5]", "result": "slightly greater than that seen after L-DOPA alone and bifeprunox"}, {"measurement": "locomotor activity compared to baseline", "setting": "[1]; [5]", "result": "increased"}, {"measurement": "median duration of activity (locomotor On-Time)", "setting": "[1]; [5]", "result": 390, "unit": "min/420 min"}, {"measurement": "locomotor activity compared to vehicle administration", "setting": "[1]; bifeprunox 4 mg/kg po alone", "result": "increased"}, {"measurement": "median duration of activity (locomotor On-Time)", "setting": "[1]; bifeprunox 4 mg/kg po alone", "result": 240, "unit": "min/420 min"}, {"measurement": "Total locomotor activity and locomotor 'On-Time' versus vehicle", "setting": "[1]; [6]", "result": "greater than in vehicle-treated animals"}, {"measurement": "Total locomotor activity and duration of activity (On-time) compared to bifeprunox (8 mg/kg po) alone and L-DOPA plus carbidopa alone", "setting": "[1]; [7]", "result": "not different"}, {"measurement": "locomotor On-Time compared to bifeprunox alone", "setting": "[1]; [7]", "result": "slightly shorter than bifeprunox alone"}, {"measurement": "locomotor activity compared to baseline", "setting": "[1]; [7]", "result": "increased"}, {"measurement": "median duration of activity (locomotor On-Time)", "setting": "[1]; [7]", "result": 300, "unit": "min/420 min"}, {"measurement": "locomotor activity compared to vehicle administration", "setting": "[1]; bifeprunox 8 mg/kg po alone", "result": "increased"}, {"measurement": "median duration of activity (locomotor On-Time)", "setting": "[1]; bifeprunox 8 mg/kg po alone", "result": 345, "unit": "min/420 min"}, {"measurement": "Total locomotor activity versus vehicle", "setting": "[1]; [8]", "result": "greater than vehicle-treated animals"}, {"measurement": "total locomotor activity and locomotor 'On-Time' compared to L-DOPA alone", "setting": "[1]; bifeprunox 4 or 8 mg/kg po given in combination with L-DOPA", "result": "tended to increase"}, {"measurement": "duration of activity ('on'-time) following L-DOPA", "setting": "[1]; co-administration with L-DOPA", "result": "increased"}, {"measurement": "peak locomotor activity as observed after L-DOPA alone", "setting": "[1]; combined treatment with L-DOPA, hyperactivity was not observed", "result": "reduced"}, {"measurement": "functional activity at dopamine D2/3 receptors", "setting": "dopamine D2/3 receptors", "result": "partial agonist"}, {"measurement": "Duration of activity (disability On-Time)", "setting": "[2]; [5]", "result": 360, "unit": "min/420 min"}, {"measurement": "Duration of activity (disability On-Time) compared to bifeprunox alone", "setting": "[2]; [5]", "result": "tended to increase"}, {"measurement": "disability scores over the period of the study", "setting": "[2]; [5]", "result": "decreased"}, {"measurement": "Median duration of activity (disability On-Time)", "setting": "[2]; bifeprunox 4 mg/kg po alone", "result": 210, "unit": "min/420 min"}, {"measurement": "disability scores compared to vehicle administration", "setting": "[2]; [6]", "result": "decreased"}, {"measurement": "Duration of activity (disability On-Time)", "setting": "[2]; [7]", "result": 165, "unit": "min/420 min"}, {"measurement": "Duration of activity (disability On-Time) compared to bifeprunox (8 mg/kg po) alone or L-DOPA plus carbidopa", "setting": "[2]; [7]", "result": "not different"}, {"measurement": "disability scores", "setting": "[2]; [7]", "result": "decreased"}, {"measurement": "Duration of activity (disability On-Time)", "setting": "[2]; bifeprunox 8 mg/kg po alone", "result": 225, "unit": "min/420 min"}, {"measurement": "Total decrease in disability versus vehicle", "setting": "[2]; bifeprunox 8 mg/kg po alone", "result": "lower than vehicle-treated animals"}, {"measurement": "disability scores compared to vehicle treatment", "setting": "[2]; [8]", "result": "decreased"}]}
